Patent US12138256B2, “Treatment of cardiopulmonary disorders” (Bayer Aktiengesellschaft, priority 2021, dated 2024)
Values joined by “and” are separate entries in the source; they are usually repeats but may differ in a detail not shown here. Equal entries are not always repeated.

Tested on: thromboxane analog U46619 induced PAH in minipigs
Experiment: Haemodynamics (PAP, BP) in the anesthetized thromboxane challenged PAH minipig after inhaled (nebulized) application (C-2.1)
Type: in vivo, Göttingen minipig
Details: inhaled 10 μg/kg
Outline: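 Anesthetized, ventilated Göttingen minipigs (2-6 kg) given continuous infusion (0.3-0.75 μg/kg/min) to raise mean PAP above 25 mmHg, dosing starting after a 30 min plateau. Compound in 1% DMSO/0.2% citric acid, pH 8, nebulized via Aeroneb Pro into the inspiratory arm (~7 min; stock 300 μg/kg). PAP by Swan-Ganz catheter, BP via carotid catheter.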

O=C(O)CCCCN(CCc1ccccc1OCc1ccc(CCc2ccccc2)cc1)Cc1ccc(C(=O)O)cc1 [comparative example 1, 4-[((4Carboxybutyl)-{2-[(4-phenethylbenzyl)oxy]phenethyl}amino)methyl]benzoic acid]
% changes in BP vs baseline (0 min vs. start inhalation, listed as Cinaciguat): 100% and 101%
% changes in BP vs baseline (10 min vs. start inhalation, listed as Cinaciguat): 89% and 86%
% changes in BP vs baseline (20 min vs. start inhalation, listed as Cinaciguat): 83% and 82%
% changes in BP vs baseline (30 min vs. start inhalation): 82%
% changes in BP vs baseline (40 min vs. start inhalation): 84%
% changes in BP vs baseline (50 min vs. start inhalation, listed as Cinaciguat): 87% and 85%
% changes in BP vs baseline (60 min vs. start inhalation, listed as Cinaciguat): 91% and 87%
% changes in BP vs baseline (70 min vs. start inhalation, listed as Cinaciguat): 94% and 88%
% changes in BP vs baseline (80 min vs. start inhalation, listed as Cinaciguat): 95% and 90%
% changes in BP vs baseline (90 min vs. start inhalation, listed as Cinaciguat): 99% and 92%
% changes in BP vs baseline (−5 min vs. start inhalation, listed as Cinaciguat): 100% and 99%
